Results published in patent publication US7311901B2, “Amphiphilic block copolymer and polymeric composition comprising the same for drug delivery” (Samyang Corporation, priority 2003, dated 2007).

Tested on: Taxol®-pretreated cancer cells
Assay: IC50 of paclitaxel for Taxol®-pretreated cancer cells
Type: cell-based, human
Settings: Taxol®-pretreated vs native cancer cells; data not shown

IC50 of paclitaxel: increased significantly
Structure (SMILES): CC(=O)O[C@H]1C(=O)[C@@]2(C)[C@H]([C@H](OC(=O)c3ccccc3)[C@]3(O)C[C@H](OC(=O)[C@H](O)[C@@H](NC(=O)c4ccccc4)c4ccccc4)C(C)=C1C3(C)C)[C@]1(OC(C)=O)CO[C@@H]1C[C@@H]2O [paclitaxel]
